The assay concerns melanoma patients. The assay can be described thus: Survival and IHC biomarker expression in melanoma patients undergoing anti-PD-1 therapy. The note with it: for progression-free survival: greater than 25% vs less than 25% 4E-BP1 expression in pre-treatment biopsies; for progression-free survival / overall survival: Kaplan-Meier; for patients still alive 35 months after initiation of treatment: melanoma patients with >25% p-SHP2 expression in pre-treatment biopsies; for overall survival: n=34, >25% vs less than 25% melanoma-p-S6 expression in pre-treatment biopsies. It counts as in vivo, human. How it is done:
As used herein, the term “progression-free survival” refers to the time from the first administration of anti-PD-1-based therapy to the first documented radiographic evidence of progressive disease. The term “overall survival” is defined as the time from the first administration of anti-PD-1 therapy to the date of death, regardless of cause.
Tumor cell lines, culture methods and clinical specimens: Human G3361 and C8161 and murine B16-F10 melanoma cell lines were cultured in RPMI-1640 medium (Life Technologies) supplemented with 10% (v/v) fetal bovine serum (Life Technologies) and 1% (v/v) penicillin streptomycin (Life Technologies) and human MKL-1, MKL-2, MS-1, and WaGa Merkel cell carcinoma cell lines in RPMI-1640 medium supplemented with 20% (v/v) fetal bovine serum and 1% (v/v) penicillin streptomycin. Clinical melanoma specimens were obtained from patients in accordance with the Institutional Review Boards of Partners Health Care Research Management, Boston, Mass. and the University of Zurich, Switzerland. Informed consent was obtained from all subjects.
Immunohistochemical (IHC) staining methods: Tumor biopsy sections were deparaffininzed in xylene and subsequently rehydrated with 100%, 95%, and 75% ethanol and deionized H2O. Sections were placed in target retrieval solution (Dako) and boiled in a Pascal pressure chamber (Dako) at 125° C. for 30 seconds, 90° C. for 10 seconds, and then cooled down to room temperature. IHC was performed using the two-step peroxidase or alkaline phosphatase method. For peroxidase-based detection of p-S6 and p-AKT, sections were incubated with 1 ug/ml rabbit anti-p-56 ribosomal protein or rabbit anti-p-AKT (Ser473) antibody (Cell Signaling Technology) at 4° C. overnight and then incubated with a 1:200 dilution of goat anti-rabbit IgG peroxidase conjugated antibody (Vector Laboratories) at room temperature for 1 hour. Immunoreactivity was detected using the NovaRed peroxidase substrate (Vector laboratories), according to the manufacturer's protocol. For alkaline phosphatase-based detection of t-SHP2, p-SHP2, p-S6, p-AKT, p-PI3K, p-PDK1, 4E-BP1, or p-eIF-4G, sections were incubated with a 1:200 dilution of t-SHP2, p-SHP2 (Santa Cruz Biotechnology), p-S6, p-AKT, p-PI3K, p-PDK1, 4E-BP1, or p-eIF-4G antibody (Cell Signaling Technology) for 1 hour at room temperature, followed by incubation with a 1:100 dilution of biotin-conjugated secondary antibody (R&D Systems) for 30 minutes at room temperature and a subsequent incubation with a 1:100 dilution of streptavidin-alkaline phosphatase (Roche) for 30 minutes at room temperature. Immunoreactivity was detected using the FAST Red Chromogen System (Biolegend), per the manufacturer's instructions. Nuclear counterstaining (blue) was performed with Meyer's haemalum for both methods.
Imaging and quantification of IHC tumor sections: All images of IHC-stained sections were analyzed with a Nikon microscope (DXM 1200F) and captured using the NIS-Elements software (BR 2.30 Nikon). Expression of p-S6 and 4E-BP1 antigens was graded by n=2-3 independent investigators blinded to the study outcome on a scale of 0-4 (0: no p-S6 expression by melanoma cells; 1: p-S6 expression in 1%-25%; 2: 26%-50%; 3:51%-75%; 4: >75% of melanoma cells). For each slide, at least two areas with the highest numbers of 5-100(+) and MART-1(+) melanoma cells, as determined in serial sections, were selected for analysis.

With Nivolumab, the progression-free survival result is listed as “significantly increased”, the “patients still alive 35 months after initiation of treatment” value is recorded as 100% and the overall survival result is on record as “significantly enhanced”.
As for Pembrolizumab, the progression-free survival entry is given as “significantly increased”, the “patients still alive 35 months after initiation of treatment” value is on record as 100% and the overall survival result is listed as “significantly enhanced”.
